Measurements taken from publication PMC10893631, “Receptor-based pharmacophore modeling, molecular docking, synthesis and biological evaluation of novel VEGFR-2, FGFR-1, and BRAF multi-kinase inhibitors” (BMC Chemistry, 2024).

Assays:
Assay in all cases: NCI SRB growth inhibition (single dose 10 µM / five-dose)
Type in all cases: cell-based, human
[1] = tested on: MDA-MB-468; conditions: Homo sapiens; for inhibition at 10 µM: MDA-MB-468 (Breast cancer), read-out: GI%; for GI50: MDA-MB-468, Breast cancer, five-dose
Method in brief: (§1)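 Cytotoxicity in the NCI panel of sixty human tumour lines was measured by sulforhodamine B protein staining. Each agent was tested in DMSO-derived dilutions at five concentrations, and TGI was read where treated absorbance equalled time-zero absorbance.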

[2] = tested on: 786–0; conditions: Homo sapiens; for inhibition at 10 µM: 786–0 (Renal cancer), read-out: GI%; for GI50: 786–0, Renal cancer, five-dose
Method in brief: as §1

[3] = tested on: KM12; conditions: Homo sapiens; for inhibition at 10 µM: KM12 (Colon cancer), read-out: GI%; for GI50: KM12, Colon cancer, five-dose
Method in brief: as §1

[4] = tested on: NCI-H23; conditions: Homo sapiens; for inhibition at 10 µM: NCI-H23 (Non-small cell lung cancer), read-out: GI%; for GI50: NCI-H23, Non-small cell lung cancer, five-dose
Method in brief: as §1

[5] = tested on: UO-31; conditions: Homo sapiens; for inhibition at 10 µM: UO-31 (Renal cancer), read-out: GI%; for GI50: UO-31, Renal cancer, five-dose
Method in brief: as §1

[6] = tested on: A498; conditions: Homo sapiens; for inhibition at 10 µM: A498 (Renal cancer), read-out: GI%; for GI50: A498, Renal cancer, five-dose
Method in brief: as §1

[7] = tested on: MDA-MB-231/ATCC; conditions: Homo sapiens; for inhibition at 10 µM: MDA-MB-231/ATCC (Breast cancer), read-out: GI%; for GI50: MDA-MB-231/ATCC, Breast cancer, five-dose
Method in brief: as §1

[8] = tested on: HCT-15; conditions: Homo sapiens; for inhibition at 10 µM: HCT-15 (Colon cancer), read-out: GI%; for GI50: HCT-15, Colon cancer, five-dose
Method in brief: as §1

[9] = tested on: SK-MEL-5; conditions: Homo sapiens; for inhibition at 10 µM: SK-MEL-5 (Melanoma), read-out: GI%; for GI50: SK-MEL-5, Melanoma, five-dose
Method in brief: as §1

[10] = tested on: SNB-19; conditions: Homo sapiens; for inhibition at 10 µM: SNB-19 (CNS cancer), read-out: GI%; for GI50: SNB-19, CNS cancer, five-dose
Method in brief: as §1

[11] = tested on: SF-539; conditions: Homo sapiens; for inhibition at 10 µM: SF-539 (CNS cancer), read-out: GI%; for GI50: SF-539, CNS cancer, five-dose
Method in brief: as §1

[12] = tested on: MOLT-4; conditions: Homo sapiens; for inhibition at 10 µM: MOLT-4 (Leukemia), read-out: GI%; for GI50: MOLT-4, Leukemia, five-dose
Method in brief: as §1

[13] = tested on: SW-620; conditions: Homo sapiens; for inhibition at 10 µM: SW-620 (Colon cancer), read-out: GI%; for GI50: SW-620, Colon cancer, five-dose
Method in brief: as §1

[14] = tested on: SF-268; conditions: Homo sapiens; for inhibition at 10 µM: SF-268 (CNS cancer), read-out: GI%; for GI50: SF-268, CNS cancer, five-dose
Method in brief: as §1

[15] = tested on: SK-MEL-28; conditions: Homo sapiens; for inhibition at 10 µM: SK-MEL-28 (Melanoma), read-out: GI%; for GI50: SK-MEL-28, Melanoma, five-dose
Method in brief: as §1

[16] = tested on: MALME-3 M; conditions: Homo sapiens; for inhibition at 10 µM: MALME-3 M (Melanoma), read-out: GI%; for GI50: MALME-3 M, Melanoma, five-dose
Method in brief: as §1

[17] = tested on: UACC-62; conditions: Homo sapiens; for inhibition at 10 µM: UACC-62 (Melanoma), read-out: GI%; for GI50: UACC-62, Melanoma, five-dose
Method in brief: as §1

[18] = tested on: T-47D; conditions: Homo sapiens, T47D; for inhibition at 10 µM: T-47D (Breast cancer), read-out: GI%; for GI50: T-47D, Breast cancer, five-dose
Method in brief: as §1

[19] = tested on: U251; conditions: Homo sapiens, U-251; for inhibition at 10 µM: U251 (CNS cancer), read-out: GI%; for GI50: U251, CNS cancer, five-dose
Method in brief: as §1

[20] = tested on: HL-60(TB); conditions: Homo sapiens; for inhibition at 10 µM: HL-60(TB) (Leukemia), read-out: GI%; for GI50: HL-60(TB), Leukemia, five-dose
Method in brief: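 Growth inhibition is derived from seven absorbance readings per agent (Tz, C and five Ti). Where a parameter level is not reached or is exceeded, the value is given as greater or less than the highest or lowest concentration tested.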

[21] = tested on: HS 578 T; conditions: Homo sapiens; for inhibition at 10 µM: HS 578 T (Breast cancer), read-out: GI%; for GI50: HS 578 T, Breast cancer, five-dose
Method in brief: as §1

[22] = tested on: RXF 393; conditions: Homo sapiens; for inhibition at 10 µM: RXF 393 (Renal cancer), read-out: GI%; for GI50: RXF 393, Renal cancer, five-dose
Method in brief: as §1

[23] = tested on: PC-3; conditions: Homo sapiens; for inhibition at 10 µM: PC-3 (Prostate cancer), read-out: GI%
Method in brief: as §1

[24] = tested on: OVCAR-5; conditions: Homo sapiens; for inhibition at 10 µM: OVCAR-5 (Ovarian cancer), read-out: GI%; for GI50: OVCAR-5, Ovarian cancer, five-dose
Method in brief: as §1

[25] = tested on: MCF7; conditions: Homo sapiens; for inhibition at 10 µM: MCF7 (Breast cancer), read-out: GI%; for GI50: MCF7, Breast cancer, five-dose
Method in brief: as §1

[26] = tested on: NCI-H226; conditions: Homo sapiens; for inhibition at 10 µM: NCI-H226 (Non-small cell lung cancer), read-out: GI%; for GI50: NCI-H226, Non-small cell lung cancer, five-dose
Method in brief: as §1

## COc1cccc(C=NNC(=O)c2ccc3[nH]c(-c4ccc(Cl)cc4)nc3c2)c1O [8r, 2-(4-Chlorophenyl)-N'-(2-hydroxy-3-methoxybenzylidene)-1H-benzo[d]imidazole-5-carbohydrazide]
[1]
  inhibition at 10 µM: > 100%
  GI50: 1440 nM
[2]
  inhibition at 10 µM: > 100%
  GI50: 1490 nM
[3]
  inhibition at 10 µM: > 100%
  GI50: 1660 nM
[4]
  inhibition at 10 µM: > 100%
  GI50: 1150 nM
[5]
  inhibition at 10 µM: > 100%
  GI50: 2070 nM
[6]
  inhibition at 10 µM: > 100%
  GI50: 12100 nM
[7]
  inhibition at 10 µM: > 100%
  GI50: 1820 nM
[8]
  inhibition at 10 µM: 95.2%
  GI50: 2720 nM
[9]
  inhibition at 10 µM: > 100%
  GI50: 1340 nM
[10]
  inhibition at 10 µM: > 100%
  GI50: 1310 nM
[11]
  inhibition at 10 µM: > 100%
  GI50: 1070 nM
[12]
  inhibition at 10 µM: > 100%
  GI50: 630 nM
[13]
  inhibition at 10 µM: > 100%
  GI50: 1320 nM
[14]
  inhibition at 10 µM: > 100%
  GI50: 1210 nM
[15]
  inhibition at 10 µM: > 100%
  GI50: 1620 nM
[16]
  inhibition at 10 µM: > 100%
  GI50: 1360 nM
[17]
  inhibition at 10 µM: > 100%
  GI50: 1230 nM
[18]
  inhibition at 10 µM: > 100%
  GI50: 600 nM
[19]
  inhibition at 10 µM: > 100%
  GI50: 1500 nM
[20]
  inhibition at 10 µM: > 100%
  GI50: 1950 nM
[21]
  inhibition at 10 µM: > 100%
  GI50: 700 nM
[22]
  inhibition at 10 µM: > 100%
  GI50: 1410 nM
[23]
  inhibition at 10 µM: > 100%
[23]; PC-3, Prostate cancer, five-dose
  GI50: 1620 nM
[24]
  inhibition at 10 µM: > 100%
  GI50: 2170 nM
[25]
  inhibition at 10 µM: > 100%
  GI50: 660 nM
[26]
  inhibition at 10 µM: > 100%
  GI50: 1650 nM

## COc1cccc(C=NNC(=O)c2ccc3[nH]c(-c4ccccc4)nc3c2)c1 [8c, N'-(3-Methoxybenzylidene)-2-phenyl-1H-benzo[d]imidazole-5-carbohydrazide]
[1]
  inhibition at 10 µM: 22.7%
[2]
  inhibition at 10 µM: 21.3%
[3]
  inhibition at 10 µM: 26%
[4]
  inhibition at 10 µM: 9.68%
[5]
  inhibition at 10 µM: 30.6%
[6]
  inhibition at 10 µM: < 5%
[7]
  inhibition at 10 µM: < 5%
[8]
  inhibition at 10 µM: 27.5%
[9]
  inhibition at 10 µM: 39%
[10]
  inhibition at 10 µM: < 5%
[11]
  inhibition at 10 µM: 28.6%
[12]
  inhibition at 10 µM: 35.4%
[13]
  inhibition at 10 µM: < 5%
[14]
  inhibition at 10 µM: 15.1%
[15]
  inhibition at 10 µM: 20.4%
[16]
  inhibition at 10 µM: 47.1%
[17]
  inhibition at 10 µM: 14.7%
[18]
  inhibition at 10 µM: 69.1%
[19]
  inhibition at 10 µM: 14.3%
[20]
  inhibition at 10 µM: 38.1%
[21]
  inhibition at 10 µM: 20%
[22]
  inhibition at 10 µM: 29.2%
[23]
  inhibition at 10 µM: 24.6%
[24]
  inhibition at 10 µM: < 5%
[25]
  inhibition at 10 µM: 51%
[26]
  inhibition at 10 µM: 19.3%

## COc1ccc(-c2nc3cc(C(=O)NN=Cc4cc(OC)c(OC)c(OC)c4)ccc3[nH]2)cc1 [8n, 2-(4-Methoxyphenyl)-N'-(3,4,5-trimethoxybenzylidene)-1H-benzo[d]imidazole-5-carbohydrazide]
[1]
  inhibition at 10 µM: < 5%
[2]
  inhibition at 10 µM: < 5%
[3]
  inhibition at 10 µM: 13.8%
[4]
  inhibition at 10 µM: 10.8%
[5]
  inhibition at 10 µM: 21.8%
[6]
  inhibition at 10 µM: < 5%
[7]
  inhibition at 10 µM: 7.37%
[8]
  inhibition at 10 µM: < 5%
[9]
  inhibition at 10 µM: 42.6%
[10]
  inhibition at 10 µM: 36.2%
[11]
  inhibition at 10 µM: 24.4%
[12]
  inhibition at 10 µM: 22.1%
[13]
  inhibition at 10 µM: < 5%
[14]
  inhibition at 10 µM: 21%
[15]
  inhibition at 10 µM: 31.4%
[16]
  inhibition at 10 µM: 76.8%
[17]
  inhibition at 10 µM: 68.5%
[18]
  inhibition at 10 µM: 38.1%
[19]
  inhibition at 10 µM: 15.3%
[20]
  inhibition at 10 µM: < 5%
[21]
  inhibition at 10 µM: 37.7%
[22]
  inhibition at 10 µM: 20.1%
[23]
  inhibition at 10 µM: 12.9%
[24]
  inhibition at 10 µM: < 5%
[25]
  inhibition at 10 µM: 73.1%
[26]
  inhibition at 10 µM: 22.3%

## COc1cccc(C=NNC(=O)c2ccc3[nH]c(-c4ccc(Cl)cc4)nc3c2)c1 [8q, 2-(4-Chlorophenyl)-N'-(3-methoxybenzylidene)-1H-benzo[d]imidazole-5-carbohydrazide]
[1]
  inhibition at 10 µM: > 100%
  GI50: 2970 nM
[2]
  inhibition at 10 µM: > 100%
  GI50: 1850 nM
[3]
  inhibition at 10 µM: > 100%
  GI50: 4420 nM
[4]
  inhibition at 10 µM: > 100%
  GI50: 2200 nM
[5]
  inhibition at 10 µM: 81.7%
  GI50: 3460 nM
[6]
  inhibition at 10 µM: > 100%
  GI50: 15300 nM
[7]
  inhibition at 10 µM: > 100%
  GI50: 1890 nM
[8]
  inhibition at 10 µM: 63%
  GI50: 5520 nM
[9]
  inhibition at 10 µM: > 100%
  GI50: 4900 nM
[10]
  inhibition at 10 µM: > 100%
  GI50: 2170 nM
[11]
  inhibition at 10 µM: > 100%
  GI50: 7140 nM
[12]
  inhibition at 10 µM: 71.6%
  GI50: 5960 nM
[13]
  inhibition at 10 µM: > 100%
  GI50: 2930 nM
[14]
  inhibition at 10 µM: > 100%
  GI50: 2180 nM
[15]
  inhibition at 10 µM: > 100%
  GI50: 2150 nM
[16]
  inhibition at 10 µM: > 100%
  GI50: 1540 nM
[17]
  inhibition at 10 µM: > 100%
  GI50: 4920 nM
[18]
  inhibition at 10 µM: > 100%
  GI50: 1950 nM
[19]
  inhibition at 10 µM: > 100%
  GI50: 2030 nM
[20]
  inhibition at 10 µM: 50.7%
  GI50: 19500 nM
[21]
  inhibition at 10 µM: > 100%
  GI50: 2710 nM
[22]
  inhibition at 10 µM: > 100%
  GI50: 2060 nM
[23]
  inhibition at 10 µM: > 100%
[24]
  inhibition at 10 µM: > 100%
  GI50: 5350 nM
[25]
  inhibition at 10 µM: > 100%
  GI50: 2570 nM
[26]
  inhibition at 10 µM: > 100%
  GI50: 2570 nM
